Measurements from patent publication US10202361B2, “Pyridazinones as herbicides” (E I DU PONT DE NEMOURS AND COMPANY, priority 2014, dated 2019).

What was measured:
Assay in all cases: Test D pre-/postemergence controlled growth environment herbicide test
Format in all cases: in vivo
Conditions in all cases: scale 0 to 100
kochia (Kochia scoparia) = test system: kochia (Kochia scoparia)
Source text: (§1) Seeds of plant species selected from bluegrass (annual bluegrass, Poa annua), blackgrass (Alopecurus myosuroides), canarygrass (Phalaris minor), chickweed (common chickweed, Stellaria media), galium (catchweed bedstraw, Galium aparine), downy bromegrass (Bromus tectorum), field poppy (Papaver rhoeas), field violet (Viola arvensis), foxtail, green (green foxtail, Setaria viridis), deadnettle (henbit deadnettle, Lamium amplexicaule), ryegrass, Italian (Italian ryegrass, Lolium multiflorum), kochia (Kochia scoparia), lambsquarters (Chenopodium album), oilseed rape (Brassica napus), pigweed (Amaranthus retroflexus), chamomile (scentless chamomile, Matricaria inodora), Russian thistle (Salsola kali), speedwell (bird's-eye speedwell, Veronica persica), barley, spring (spring barley, Hordeum vulgare), wheat, spring (spring wheat, Triticum aestivum), buckwheat, wild (wild buckwheat, Polygonum convolvulus), mustard, wild (wild mustard, Sinapis arvensis), oat, wild (wild oat, Avena fatua), radish, wild (wild radish, Raphanus raphanistrum), windgrass (Apera spica-venti), barley, winter (winter barley, Hordeum vulgare), and wheat, winter (winter wheat, Triticum aestivum) were planted into a silt loam soil and treated preemergence with test chemicals formulated in a non-phytotoxic solvent mixture which included a surfactant.
(§2) At the same time, these species were planted in pots containing Redi-Earth® planting medium (Scotts Company, 14111 Scottslawn Road, Marysville, Ohio 43041) comprising spaghnum peat moss, vermiculite, wetting agent and starter nutrients and treated with postemergence applications of the test chemicals formulated in the same manner. Plants ranged in height from 2 to 18 cm (1- to 4-leaf stage). Treated plants and controls were maintained in a controlled growth environment for 14 to 21 d after which time all species were compared to controls and visually evaluated. Plant response ratings, summarized in Table D, are based on a scale of 0 to 100 where 0 is no effect and 100 is complete control. A dash (-) response means no test result.

[1] = test system: mustard, wild (wild mustard, Sinapis arvensis)
Source text: as §1, §2

[2] = test system: pigweed (Amaranthus retroflexus)
Source text: as §1, §2

[3] = test system: oat, wild (wild oat, Avena fatua)
Source text: as §1, §2

[4] = test system: wheat, spring (spring wheat, Triticum aestivum)
Source text: as §1, §2

[5] = test system: galium (catchweed bedstraw, Galium aparine)
Source text: as §1, §2

[6] = test system: ryegrass, Italian (Italian ryegrass, Lolium multiflorum)
Source text: as §1, §2

[7] = test system: Russian thistle (Salsola kali)
Source text: as §1, §2

[8] = test system: bluegrass (annual bluegrass, Poa annua)
Source text: as §1, §2

[9] = test system: field poppy (Papaver rhoeas)
Source text: as §1, §2

[10] = test system: oilseed rape (Brassica napus)
Source text: as §1, §2

Measured: Plant response rating

Cc1cc(=O)n(-c2ccc(F)cc2)nc1Cc1ccnc(C(F)(F)F)c1 [Compound 1, 2-(4-fluorophenyl)-5-methyl-6-[[2-(trifluoromethyl)-4-pyridinyl]methyl]-3(2H)-pyridazinone]
15: kochia (Kochia scoparia); Postemergence, 31 g ai/ha | [3]; Preemergence, 125 g ai/ha | [4]; Preemergence, 250 g ai/ha | [8]; Preemergence, 250 g ai/ha
85: [9]; Postemergence, 500 g ai/ha
40: [1]; Preemergence, 62 g ai/ha | [2]; Postemergence, 250 g ai/ha | [10]; Postemergence, 62 g ai/ha | [10]; Preemergence, 125 g ai/ha
90: [5]; Postemergence, 500 g ai/ha
50: kochia (Kochia scoparia); Postemergence, 250 g ai/ha | [2]; Postemergence, 500 g ai/ha | [7]; Postemergence, 250 g ai/ha | [9]; Preemergence, 31 g ai/ha | [10]; Postemergence, 125 g ai/ha
20: kochia (Kochia scoparia); Postemergence, 62 g ai/ha | [1]; Postemergence, 31 g ai/ha | [1]; Postemergence, 62 g ai/ha | [2]; Postemergence, 31 g ai/ha | [2]; Preemergence, 62 g ai/ha | [6]; Preemergence, 250 g ai/ha | [7]; Postemergence, 62 g ai/ha | [7]; Preemergence, 62 g ai/ha
70: kochia (Kochia scoparia); Postemergence, 500 g ai/ha | kochia (Kochia scoparia); Preemergence, 31 g ai/ha | [5]; Postemergence, 250 g ai/ha | [5]; Preemergence, 250 g ai/ha
5: [4]; Postemergence, 62 g ai/ha | [4]; Postemergence, 125 g ai/ha | [6]; Postemergence, 125 g ai/ha | [8]; Postemergence, 31 g ai/ha | [8]; Postemergence, 62 g ai/ha
0: [3]; Preemergence, 62 g ai/ha | [4]; Postemergence, 31 g ai/ha | [4]; Preemergence, 31 g ai/ha | [4]; Preemergence, 62 g ai/ha | [5]; Preemergence, 31 g ai/ha | [6]; Postemergence, 31 g ai/ha | [6]; Postemergence, 62 g ai/ha | [6]; Preemergence, 31 g ai/ha | [6]; Preemergence, 62 g ai/ha | [8]; Preemergence, 31 g ai/ha | [8]; Preemergence, 62 g ai/ha | [8]; Preemergence, 125 g ai/ha
30: kochia (Kochia scoparia); Postemergence, 125 g ai/ha | [1]; Postemergence, 125 g ai/ha | [2]; Postemergence, 62 g ai/ha | [2]; Postemergence, 125 g ai/ha | [5]; Postemergence, 31 g ai/ha | [5]; Postemergence, 62 g ai/ha | [9]; Postemergence, 31 g ai/ha | [10]; Preemergence, 31 g ai/ha | [10]; Preemergence, 62 g ai/ha
100: kochia (Kochia scoparia); Preemergence, 250 g ai/ha | kochia (Kochia scoparia); Preemergence, 500 g ai/ha | [2]; Preemergence, 125 g ai/ha | [2]; Preemergence, 250 g ai/ha | [2]; Preemergence, 500 g ai/ha | [5]; Preemergence, 500 g ai/ha | [7]; Preemergence, 125 g ai/ha | [7]; Preemergence, 250 g ai/ha | [7]; Preemergence, 500 g ai/ha | [9]; Preemergence, 250 g ai/ha | [9]; Preemergence, 500 g ai/ha
10: [3]; Postemergence, 31 g ai/ha | [3]; Postemergence, 62 g ai/ha | [3]; Postemergence, 125 g ai/ha | [3]; Postemergence, 250 g ai/ha | [3]; Postemergence, 500 g ai/ha | [4]; Postemergence, 250 g ai/ha | [4]; Postemergence, 500 g ai/ha | [4]; Preemergence, 125 g ai/ha | [5]; Preemergence, 62 g ai/ha | [6]; Postemergence, 250 g ai/ha | [6]; Postemergence, 500 g ai/ha | [6]; Preemergence, 125 g ai/ha | [8]; Postemergence, 125 g ai/ha | [8]; Postemergence, 250 g ai/ha | [8]; Postemergence, 500 g ai/ha
60: [6]; Preemergence, 500 g ai/ha | [9]; Postemergence, 62 g ai/ha | [9]; Postemergence, 125 g ai/ha
98: [10]; Preemergence, 500 g ai/ha
35: [3]; Preemergence, 250 g ai/ha | [10]; Postemergence, 31 g ai/ha
80: kochia (Kochia scoparia); Preemergence, 125 g ai/ha | [1]; Postemergence, 250 g ai/ha | [1]; Postemergence, 500 g ai/ha | [3]; Preemergence, 500 g ai/ha | [9]; Postemergence, 250 g ai/ha | [10]; Postemergence, 500 g ai/ha
95: [1]; Preemergence, 250 g ai/ha | [1]; Preemergence, 500 g ai/ha | [9]; Preemergence, 62 g ai/ha | [9]; Preemergence, 125 g ai/ha
45: [5]; Postemergence, 125 g ai/ha | [8]; Preemergence, 500 g ai/ha
75: [4]; Preemergence, 500 g ai/ha | [10]; Postemergence, 250 g ai/ha | [10]; Preemergence, 250 g ai/ha
